The conditions of series [1]: for Pe: PAMPA, PBS pH 7.4; for BBB permeation prediction in words: PAMPA-BBB; for CNS (+/−) predicted BBB permeation: class from Pe. The source says: An important feature for drugs targeting the brain is their ability to cross the BBB. The parallel artificial membrane permeability assay (PAMPA) is a high-throughput screening tool applicable for prediction of passive transport across BBB [57]. […] These include mainly (i) the different composition of the human phospholipid bilayer may cause deviation in predicted permeability, (ii) omitting the absorption of compounds that are actively transported by influx transporters and pumped-out by various efflux mechanisms with the glycoprotein P at the forefront or (iii) transport through the paracellular route which is mostly exploited by small […] molecules. Even considering these drawbacks, PAMPA-BBB is conceived as very simple but powerful tool for BBB prediction.
PAMPA (the parallel artificial membrane permeability assay) is a high-throughput screening tool applicable for prediction of the passive transport of potential drugs across the blood-brain barrier (BBB). In this study, it has been used as a non-cell-based in vitro assay carried out in a coated 96-well membrane filter. The filter membrane of the donor plate was coated with PBL (Polar Brain Lipid, Avanti, USA) in dodecane (4 µl of 20 mg/mL PBL in dodecane) and the acceptor well was filled with 300 µl of phosphate buffer saline, (PBS pH 7.4; VA). The tested compounds were dissolved first in DMSO and then diluted with PBS pH 7.4 to reach the final concentrations 50–500 µM in the donor well. […] In principle, test compound diffuse from the donor well through the polar brain lipid membrane (area = 0.28 cm^2) to the acceptor well. The concentration of the tested compound in both donor and the acceptor wells were assessed after 3, 4, 5 and 6 h of incubation in quadruplicate using the UV plate reader Synergy HT (Biotek, USA) at the maximum absorption wavelength of each compound (n = 3). Besides that, the solution of theoretical compound concentration, simulating the equilibrium state, established if the membrane was ideally permeable was prepared and assessed as well.

Series [2] is described as follows: in vitro. Conditions: human. The method, then:
The human origin cell line HepG2 (ATCC, Mannassas, VA, USA) isolated from liver hepatocellular carcinoma was used to evaluate cytotoxicity of tested compounds. The cells were cultivated in Dublecco’s modified Eagle’s medium (DMEM; Biosera, Nuaille, France) supplemented with 10% fetal bovine serum (Biosera) and 1% penicillin-streptomycin antibiotic solution (Sigma-Aldrich, St. Louis, MO, USA), incubated at 37 °C in a CO2 incubator (Binder CO2 incubator BC 160, Tuttlingen, Germany) and routinely passaged by trypsinization at 75–85% confluence.
The final concentration of DMSO was less than 0.25% per well.
After 24-h incubation, the medium containing serially diluted substances was aspirated from each well and replaced by 100 µL of fresh medium containing MTT (0.5 mg/mL). Plates were subsequently incubated at 37 °C in CO2 incubator for 45 min. The medium containing MTT was then aspirated and formazan dissolved in 100 μL of DMSO. The optical density of each well was measured using Synergy 2 Multi-Mode Microplate Reader (BioTek Instruments, Inc., Winooski, VT, USA) at 570 nm. The cell viability was expressed as the percentage of untreated control. Each experiment was performed in triplicate and repeated three independent times.
The IC50 values were expressed as a mean ± standard error of the mean (SEM).

Series [3] has as its target T1, human AChE (hAChE), recombinant acetylcholinesterase (Homo sapiens, UniProt P22303).
T1 construct: made in house
The series can be described thus: hAChE inhibition, modified Ellman's method. Type of series: biochemical. Conditions: for SI (selectivity index for hAChE): ratio IC50(hBChE)/IC50(hAChE); for times more potent than reference (hAChE): 3a vs THA, 5d vs 7-MEOTA. The method, then: Three series of tacrine-squaramide homodimers were tested for their inhibitory potential against human AChE (hAChE) and human BChE (hBChE) enzymes using modified spectrophotometric method of Ellman et al.. THA, 6-Cl-THA and 7-MEOTA were used as reference compounds. […].
(§1) Human plasmatic butyrylcholinesterase (BChE; EC 3.1.1.8) and recombinant acetylcholinesterase (AChE; 3.1.1.7) were prepared at the Department of Toxicology and Military Pharmacy. 5,5′-dithiobis(2-nitrobenzoic acid) (Ellman’s reagent, DTNB), phosphate buffer (PB, pH 7.4), acetylthiocholine (ATC) and butyrylthiocholine (BTC), were purchased from Sigma-Aldrich, Prague, Czech Republic. For measuring purposes – polystyrene Nunc 96-well microplates with flat bottom shape (ThermoFisher Scientific, USA) were utilized.
(§2) All the assays were carried out in 0.1 M KH2PO4/K2HPO4 buffer, pH 7.4. Enzyme solutions were prepared at 2.0 units/mL in 2 mL aliquots. The assay medium (100 µL) consisted of 40 µL of 0.1 M phosphate buffer (pH 7.4), 20 µL of 0.01 M DTNB, 10 µL of the enzyme, and 20 µL of 0.01 M substrate (ATC/BTC iodide solution).
(§3) Tested compounds were preincubated for 5 min. The reaction was started by immediate addition of 20 µL of the substrate. The activity was determined by measuring the increase in absorbance at 412 for AChE/BChE at 37 °C at 2 min intervals - using a Multi-mode microplate reader Synergy 2 (Winooski, VT, USA). Each concentration was assayed in triplicate. Software GraphPad Prizm 5 (San Diego, CA, USA) was used for the statistical data evaluation.

Series [4] concerns the target human BChE (hBChE), human plasmatic butyrylcholinesterase (Homo sapiens, UniProt P06276). The series can be described thus: hBChE inhibition, modified Ellman's method. It is filed as biochemical. The method, then: Three series of tacrine-squaramide homodimers were tested for their inhibitory potential against human AChE (hAChE) and human BChE (hBChE) enzymes using modified spectrophotometric method of Ellman et al.. THA, 6-Cl-THA and 7-MEOTA were used as reference compounds.
as §1, §2, §3

Series [5] has as its target T2, hAChE (Homo sapiens, UniProt P22303).
T2 construct: made in house
Kind of series: Kinetic study of AChE inhibition. Type of series: biochemical. The method, then:
Kinetic study was performed in order to describe the interactions of the compounds 4b and 3e with hAChE and hBChE, respectively. Inhibition kinetics were elucidated from velocity curves that were measured at several concentrations of the corresponding substrate (AChE—acetylthiocholine, BChE—butyrylthiocholine) and tested compounds. The type of enzyme inhibition and corresponding kinetic parameters (Ki and Ki’) were determined by nonlinear regression analysis. Results for each type model of inhibition (competitive, non-competitive, uncompetitive and mixed) were compared by sum-of-squares F-test. […].
The kinetic study of AChE and BChE was performed by using the above-mentioned modified Ellman’s method. The values of Vmax and Km of the Michaelis-Menten kinetics as well as the values of Ki and Ki’ were calculated by nonlinear regression from the substrate velocity curves. Linear regression was used for calculation of Lineweaver-Burk plots. All calculations were performed using GraphPad Prism software version 6.07 for Windows (San Diego, CA, USA).

Where [6] appears, read: mean of at least three experiments, read-out: IC50 hBChE.

Like-named read-outs stand apart in the source and are kept apart here.

human BChE (hBChE), human plasmatic butyrylcholinesterase, sequence (P06276 29-602): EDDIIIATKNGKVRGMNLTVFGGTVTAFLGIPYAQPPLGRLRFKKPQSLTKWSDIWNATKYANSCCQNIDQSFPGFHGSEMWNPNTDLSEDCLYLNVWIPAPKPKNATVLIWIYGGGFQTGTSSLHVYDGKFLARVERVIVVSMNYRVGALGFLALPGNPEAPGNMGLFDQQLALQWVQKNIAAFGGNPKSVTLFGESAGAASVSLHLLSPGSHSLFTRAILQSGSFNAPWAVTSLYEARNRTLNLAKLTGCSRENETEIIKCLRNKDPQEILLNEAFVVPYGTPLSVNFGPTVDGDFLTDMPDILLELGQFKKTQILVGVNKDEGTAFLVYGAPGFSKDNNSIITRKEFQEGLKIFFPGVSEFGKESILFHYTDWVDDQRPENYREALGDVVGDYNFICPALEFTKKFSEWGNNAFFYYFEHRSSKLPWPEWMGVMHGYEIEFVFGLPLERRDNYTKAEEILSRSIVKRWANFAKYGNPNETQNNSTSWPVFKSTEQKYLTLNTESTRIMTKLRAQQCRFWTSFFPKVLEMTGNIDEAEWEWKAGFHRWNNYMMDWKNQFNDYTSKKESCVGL
T1 sequence (P22303 32-614): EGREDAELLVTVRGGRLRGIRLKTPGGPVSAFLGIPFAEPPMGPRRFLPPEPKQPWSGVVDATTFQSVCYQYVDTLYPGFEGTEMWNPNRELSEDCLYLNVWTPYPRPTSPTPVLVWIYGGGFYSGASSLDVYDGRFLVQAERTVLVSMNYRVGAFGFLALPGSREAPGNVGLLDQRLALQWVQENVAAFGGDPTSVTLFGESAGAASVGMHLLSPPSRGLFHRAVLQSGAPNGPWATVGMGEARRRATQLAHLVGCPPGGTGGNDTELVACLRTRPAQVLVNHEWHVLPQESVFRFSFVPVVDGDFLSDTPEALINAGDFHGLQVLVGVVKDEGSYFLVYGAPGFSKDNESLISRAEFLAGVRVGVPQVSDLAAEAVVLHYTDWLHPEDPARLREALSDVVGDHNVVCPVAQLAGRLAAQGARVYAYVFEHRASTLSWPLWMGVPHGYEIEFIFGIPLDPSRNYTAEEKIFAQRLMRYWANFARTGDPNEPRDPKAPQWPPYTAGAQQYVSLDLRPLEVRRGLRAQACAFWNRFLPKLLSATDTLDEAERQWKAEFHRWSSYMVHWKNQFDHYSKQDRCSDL
T2 sequence (P22303 32-614): as above

Turning to `COc1ccc2nc3c(c(NCCNc4c(NCCNc5c6c(nc7ccc(OC)cc57)CCCC6)c(=O)c4=O)c2c1)CCCC3` [Compound 5a, Bis({2-[(7-methoxy-1,2,3,4-tetrahydroacridin-9-yl)amino]ethyl}amino)cyclobut-3-ene-1,2-dione], in series [1], the Pe stood at 2.3 ×10⁻⁶ cm/s, the “BBB permeation prediction in words” value was “uncertain BBB permeation” and the “CNS (+/−) predicted BBB permeation” value was “CNS +/− (CNS +/−: BBB permeation uncertain with Pe (10^−6 cm·s^−1) from 4.0 to 2.0)”. Also, the half-maximal inhibitory concentration (IC50) at 24 h in series [2] was over 256000 nM. For the same compound, in series [3], the IC50 was 170 nM and the “SI (selectivity index for hAChE)” value is 0.7. Moreover, the IC50 in series [4] (setting [6]) was 130 nM.
Regarding `O=c1c(NCCNc2c3c(nc4ccccc24)CCCC3)c(NCCNc2c3c(nc4ccccc24)CCCC3)c1=O` [Compound 3a, Bis({2-[(1,2,3,4-tetrahydroacridin-9-yl)amino]ethyl}amino)cyclobut-3-ene-1,2-dione], in series [1], the Pe worked out at 1.1 ×10⁻⁶ cm/s, the “BBB permeation prediction in words” value is “cannot presumably cross the BBB” and the “CNS (+/−) predicted BBB permeation” value is reported as “CNS − (CNS −: low BBB permeation predicted with Pe (10^−6 cm·s^−1) < 2.0)”. Besides, the IC50 at 24 h in series [2] was over 256000 nM. Besides, in series [3], the 50% inhibitory concentration (IC50) is 3.8 nM, the “times more potent than reference (hAChE)” value was determined as 84 times and the “SI (selectivity index for hAChE)” value is 16. The half-inhibitory concentration (IC50) in series [4] was found to be 62 nM.
On to `COc1ccc2nc3c(c(NCCCCCNc4c(NCCCCCNc5c6c(nc7ccc(OC)cc57)CCCC6)c(=O)c4=O)c2c1)CCCC3` [Compound 5d, Bis({5-[(7-methoxy-1,2,3,4-tetrahydroacridin-9-yl)amino]pentyl}amino)cyclobut-3-ene-1,2-dione], for which, in series [1], the Pe is 1.3 ×10⁻⁶ cm/s, the “BBB permeation prediction in words” value is on record as “cannot presumably cross the BBB” and the “CNS (+/−) predicted BBB permeation” value is recorded as “CNS − (CNS −: low BBB permeation predicted with Pe (10^−6 cm·s^−1) < 2.0)”. Further, the 50% inhibitory concentration (IC50) at 24 h in series [2] came to 98000 nM. In addition, in series [3], the half-maximal inhibitory concentration (IC50) was 120 nM, the “times more potent than reference (hAChE)” value came out at 83 times and the “SI (selectivity index for hAChE)” value came to 5.7. In addition, the IC50 in series [4] turned out to be 680 nM.
`O=c1c(NCCCCCCNc2c3c(nc4cc(Cl)ccc24)CCCC3)c(NCCCCCCNc2c3c(nc4cc(Cl)ccc24)CCCC3)c1=O` [Compound 4e, Bis({6-[(6-chloro-1,2,3,4-tetrahydroacridin-9-yl)amino]hexyl}amino)cyclobut-3-ene-1,2-dione]: in series [1], the Pe stood at 17 ×10⁻⁶ cm/s, the “BBB permeation prediction in words” value is reported as “high probability to cross the BBB” and the “CNS (+/−) predicted BBB permeation” value was “CNS + (CNS +: high BBB permeation predicted with Pe (10^−6 cm·s^−1) > 4.0)”. For the same compound, the IC50 at 24 h in series [2] was over 64000 nM. Besides, in series [3], the IC50 was determined as 3.2 nM and the “SI (selectivity index for hAChE)” value is given as 170. Further, in series [4] (setting [6]), the IC50 stood at 540 nM.
Turning to `O=c1c(NCCCNc2c3c(nc4cc(Cl)ccc24)CCCC3)c(NCCCNc2c3c(nc4cc(Cl)ccc24)CCCC3)c1=O` [Compound 4b, Bis({3-[(6-chloro-1,2,3,4-tetrahydroacridin-9-yl)amino]propyl}amino)cyclobut-3-ene-1,2-dione], in series [1], the Pe is 2.5 ×10⁻⁶ cm/s, the “BBB permeation prediction in words” value is “uncertain BBB permeation” and the “CNS (+/−) predicted BBB permeation” value is “CNS +/− (CNS +/−: BBB permeation uncertain with Pe (10^−6 cm·s^−1) from 4.0 to 2.0)”. Besides, the “Ki'” value in series [5] (binding to enzyme-substrate complex, substrate acetylthiocholine) turned out to be 0.5 ± 0.2 nM. In series [5] (binding to free enzyme, substrate acetylthiocholine), this compound had a Ki of 0.4 ± 0.2 nM. In addition, the type of inhibition result in series [5] (nonlinear regression, sum-of-squares F-test, p < 0.05) is “mixed type of inhibition”. The IC50 at 24 h in series [2] is over 64000 nM. Also, in series [3], the IC50 is 2 nM and the “SI (selectivity index for hAChE)” value came out at 55. In addition, in series [3] (IC50 comparison with bis(7)-tacrine), the “times less active than bis(7)-tacrine (hAChE)” value is recorded as 2.5 times. For the same compound, the IC50 in series [4] came out at 110 nM.
In the case of `COc1ccc2nc3c(c(NCCCCCCNc4c(NCCCCCCNc5c6c(nc7ccc(OC)cc57)CCCC6)c(=O)c4=O)c2c1)CCCC3` [Compound 5e, Bis({6-[(7-methoxy-1,2,3,4-tetrahydroacridin-9-yl)amino]hexyl}amino)cyclobut-3-ene-1,2-dione], the half-inhibitory concentration (IC50) at 24 h in series [2] was 26000 nM. Besides, the IC50 in series [3] amounted to 150 nM; in series [4] (setting [6]), 1100 nM. In series [3], the “SI (selectivity index for hAChE)” value came out at 7.3.
The matching figures for `COc1ccc2nc3c(c(NCCCCCCCCNc4c(NCCCCCCCCNc5c6c(nc7ccc(OC)cc57)CCCC6)c(=O)c4=O)c2c1)CCCC3` [Compound 5g, Bis({8-[(7-methoxy-1,2,3,4-tetrahydroacridin-9-yl)amino]octyl}amino)cyclobut-3-ene-1,2-dione]: 3500 nM, 490 nM, 2900 nM and 5.9.
As for `O=c1c(NCCCCNc2c3c(nc4cc(Cl)ccc24)CCCC3)c(NCCCCNc2c3c(nc4cc(Cl)ccc24)CCCC3)c1=O` [Compound 4c, Bis({4-[(6-chloro-1,2,3,4-tetrahydroacridin-9-yl)amino]butyl}amino)cyclobut-3-ene-1,2-dione], in series [2], the IC50 at 24 h was over 64000 nM. For the same compound, in series [3], the IC50 is 4.6 nM and the “SI (selectivity index for hAChE)” value stood at 37. Moreover, the IC50 in series [4] (setting [6]) is 170 nM.
The matching figures for `O=c1c(NCCCCCNc2c3c(nc4ccccc24)CCCC3)c(NCCCCCNc2c3c(nc4ccccc24)CCCC3)c1=O` [Compound 3d, Bis({5-[(1,2,3,4-tetrahydroacridin-9-yl)amino]pentyl}amino)cyclobut-3-ene-1,2-dione]: 69000 nM, 8.1 nM, 8.5 and 69 nM.

The values above are taken from PMC6723352, “Exploring Structure-Activity Relationship in Tacrine-Squaramide Derivatives as Potent Cholinesterase Inhibitors” (Biomolecules, 2019).
